Measurements taken from ChEMBL document CHEMBL3885881, “DrugMatrix”.

Species on record: Rattus norvegicus
Test: DrugMatrix - Regimen: Daily Repeat
Assay type: toxicity, organism-based, Sprague-Dawley
Parameters: regimen Daily Repeat, gender Male, age 6-8 weeks
Conditions: in vivo, po, route oral GAVAGE, […]; for ABSOLUTE BASOPHIL / ABSOLUTE EOSINOPHIL / ABSOLUTE LYMPHOCYTE / ABSOLUTE MONOCYTE / ABSOLUTE SEGMENTED NEUTROPHIL / BASOPHIL / EOSINOPHIL / ERYTHROCYTE COUNT / HEMATOCRIT / HEMOGLOBIN / LEUKOCYTE COUNT / LYMPHOCYTE / MEAN CORPUSCULAR HEMOGLOBIN / MEAN CORPUSCULAR HEMOGLOBIN CONCENTRATION / MEAN CORPUSCULAR VOLUME / MONOCYTE / NEUTROPHIL / NUCLEATED RED BLOOD CELLS / PLATELET COUNT: tissue Blood; for ALANINE AMINOTRANSFERASE / ALBUMIN / ALKALINE PHOSPHATASE / ASPARTATE AMINOTRANSFERASE / BLOOD UREA NITROGEN / CARBON DIOXIDE / CHLORIDE / CHOLESTEROL / CREATINE PHOSPHOKINASE / CREATININE / GLUCOSE / LACTATE DEHYDROGENASE / LIPASE / PHOSPHORUS / POTASSIUM / SODIUM / TOTAL BILIRUBIN / TOTAL PROTEIN / URIC ACID: tissue Plasma
[1] = 0 mg/kg, 72 h, dose level Control, time 3 day
[2] = 0 mg/kg, 120 h, dose level Control, time 5 day
[3] = 30 mg/kg, 72 h, dose level Low, time 3 day
[4] = 30 mg/kg, 120 h, dose level Low, time 5 day

CS(=O)(=O)Nc1ccc([N+](=O)[O-])cc1Oc1ccccc1 [NIMESULIDE]
ABSOLUTE BASOPHIL [1]: 0 CELLS/uL
ABSOLUTE EOSINOPHIL [1]: 0 CELLS/uL
ABSOLUTE LYMPHOCYTE [1]: 7601 CELLS/uL
ABSOLUTE MONOCYTE [1]: 354.33 CELLS/uL
ABSOLUTE SEGMENTED NEUTROPHIL [1]: 744.67 CELLS/uL
BASOPHIL [1]: 0%
EOSINOPHIL [1]: 0%
ERYTHROCYTE COUNT [1]: 5.03 x10E6/uL
HEMATOCRIT [1]: 33.7%
HEMOGLOBIN [1]: 13.43 G/DL
LEUKOCYTE COUNT [1]: 8.7 x10E3/uL
LYMPHOCYTE [1]: 86.33%
MEAN CORPUSCULAR HEMOGLOBIN [1]: 26.7 pg
MEAN CORPUSCULAR HEMOGLOBIN CONCENTRATION [1]: 39.83 G/DL
MEAN CORPUSCULAR VOLUME [1]: 67 fL
MONOCYTE [1]: 4.67%
NEUTROPHIL [1]: 9%
NUCLEATED RED BLOOD CELLS [1]: 0 /100WBC
PLATELET COUNT [1]: 1151 x10E3/uL
ALANINE AMINOTRANSFERASE [1]: 97.67 u/L
ALBUMIN [1]: 4.07 G/DL
ALKALINE PHOSPHATASE [1]: 607.67 u/L
ASPARTATE AMINOTRANSFERASE [1]: 101 u/L
BLOOD UREA NITROGEN [1]: 13.33 mg/dL
CARBON DIOXIDE [1]: 36 mmol/L
CHLORIDE [1]: 99.67 MEQ/L
CHOLESTEROL [1]: 75.67 mg/dL
CREATINE PHOSPHOKINASE [1]: 279.67 u/L
CREATININE [1]: 0.16 mg/dL
GLUCOSE [1]: 164 mg/dL
LACTATE DEHYDROGENASE [1]: 115 u/L
LIPASE [1]: 12.67 u/L
PHOSPHORUS [1]: 8.77 mg/dL
POTASSIUM [1]: 5.79 MEQ/L
SODIUM [1]: 142.83 MEQ/L
TOTAL BILIRUBIN [1]: 0.27 mg/dL
TOTAL PROTEIN [1]: 5.8 G/DL
URIC ACID [1]: 0.67 mg/dL
ABSOLUTE BASOPHIL [2]: 0 CELLS/uL
ABSOLUTE EOSINOPHIL [2]: 0 CELLS/uL
ABSOLUTE LYMPHOCYTE [2]: 4426.33 CELLS/uL
ABSOLUTE MONOCYTE [2]: 102.67 CELLS/uL
ABSOLUTE SEGMENTED NEUTROPHIL [2]: 337.67 CELLS/uL
BASOPHIL [2]: 0%
EOSINOPHIL [2]: 0%
ERYTHROCYTE COUNT [2]: 5.31 x10E6/uL
HEMATOCRIT [2]: 32.5%
HEMOGLOBIN [2]: 13.17 G/DL
LEUKOCYTE COUNT [2]: 4.87 x10E3/uL
LYMPHOCYTE [2]: 90.33%
MEAN CORPUSCULAR HEMOGLOBIN [2]: 24.93 pg
MEAN CORPUSCULAR HEMOGLOBIN CONCENTRATION [2]: 40.67 G/DL
MEAN CORPUSCULAR VOLUME [2]: 61.33 fL
MONOCYTE [2]: 2.33%
NEUTROPHIL [2]: 7.33%
NUCLEATED RED BLOOD CELLS [2]: 0.33 /100WBC
PLATELET COUNT [2]: 848.33 x10E3/uL
ALANINE AMINOTRANSFERASE [2]: 59.67 u/L
ALBUMIN [2]: 3.87 G/DL
ALKALINE PHOSPHATASE [2]: 452 u/L
ASPARTATE AMINOTRANSFERASE [2]: 81.33 u/L
BLOOD UREA NITROGEN [2]: 13.67 mg/dL
CARBON DIOXIDE [2]: 26.33 mmol/L
CHLORIDE [2]: 103.67 MEQ/L
CHOLESTEROL [2]: 65.67 mg/dL
CREATINE PHOSPHOKINASE [2]: 355.33 u/L
CREATININE [2]: 0.14 mg/dL
GLUCOSE [2]: 171.33 mg/dL
LACTATE DEHYDROGENASE [2]: 118 u/L
LIPASE [2]: 11.33 u/L
PHOSPHORUS [2]: 11.13 mg/dL
POTASSIUM [2]: 5.18 MEQ/L
SODIUM [2]: 143.17 MEQ/L
TOTAL BILIRUBIN [2]: 0.2 mg/dL
TOTAL PROTEIN [2]: 5.87 G/DL
URIC ACID [2]: 0.63 mg/dL
ABSOLUTE BASOPHIL [3]: 0 CELLS/uL
ABSOLUTE EOSINOPHIL [3]: 25.33 CELLS/uL
ABSOLUTE LYMPHOCYTE [3]: 7491.33 CELLS/uL
ABSOLUTE MONOCYTE [3]: 125 CELLS/uL
ABSOLUTE SEGMENTED NEUTROPHIL [3]: 858.33 CELLS/uL
BASOPHIL [3]: 0%
EOSINOPHIL [3]: 0.33%
ERYTHROCYTE COUNT [3]: 5.1 x10E6/uL
HEMATOCRIT [3]: 33.1%
HEMOGLOBIN [3]: 12.87 G/DL
LEUKOCYTE COUNT [3]: 8.5 x10E3/uL
LYMPHOCYTE [3]: 88%
MEAN CORPUSCULAR HEMOGLOBIN [3]: 25.23 pg
MEAN CORPUSCULAR HEMOGLOBIN CONCENTRATION [3]: 38.87 G/DL
MEAN CORPUSCULAR VOLUME [3]: 64.93 fL
MONOCYTE [3]: 1.33%
NEUTROPHIL [3]: 10.33%
NUCLEATED RED BLOOD CELLS [3]: 0 /100WBC
PLATELET COUNT [3]: 1037.67 x10E3/uL
ALANINE AMINOTRANSFERASE [3]: 125.67 u/L
ALBUMIN [3]: 4.17 G/DL
ALKALINE PHOSPHATASE [3]: 434 u/L
ASPARTATE AMINOTRANSFERASE [3]: 117 u/L
BLOOD UREA NITROGEN [3]: 11 mg/dL
CARBON DIOXIDE [3]: 35 mmol/L
CHLORIDE [3]: 106.33 MEQ/L
CHOLESTEROL [3]: 78 mg/dL
CREATINE PHOSPHOKINASE [3]: 456.33 u/L
CREATININE [3]: 0.28 mg/dL
GLUCOSE [3]: 158.67 mg/dL
LACTATE DEHYDROGENASE [3]: 119.33 u/L
LIPASE [3]: 11 u/L
PHOSPHORUS [3]: 8.8 mg/dL
POTASSIUM [3]: 5.65 MEQ/L
SODIUM [3]: 146.27 MEQ/L
TOTAL BILIRUBIN [3]: 0.13 mg/dL
TOTAL PROTEIN [3]: 5.7 G/DL
URIC ACID [3]: 0.63 mg/dL
ABSOLUTE BASOPHIL [4]: 0 CELLS/uL
ABSOLUTE EOSINOPHIL [4]: 83.33 CELLS/uL
ABSOLUTE LYMPHOCYTE [4]: 10811.33 CELLS/uL
ABSOLUTE MONOCYTE [4]: 335.67 CELLS/uL
ABSOLUTE SEGMENTED NEUTROPHIL [4]: 1536.33 CELLS/uL
BASOPHIL [4]: 0%
EOSINOPHIL [4]: 0.33%
ERYTHROCYTE COUNT [4]: 5.57 x10E6/uL
HEMATOCRIT [4]: 36.37%
HEMOGLOBIN [4]: 13.93 G/DL
LEUKOCYTE COUNT [4]: 12.77 x10E3/uL
LYMPHOCYTE [4]: 87.33%
MEAN CORPUSCULAR HEMOGLOBIN [4]: 25 pg
MEAN CORPUSCULAR HEMOGLOBIN CONCENTRATION [4]: 38.33 G/DL
MEAN CORPUSCULAR VOLUME [4]: 65.23 fL
MONOCYTE [4]: 2.33%
NEUTROPHIL [4]: 10%
NUCLEATED RED BLOOD CELLS [4]: 0 /100WBC
PLATELET COUNT [4]: 1176 x10E3/uL
ALANINE AMINOTRANSFERASE [4]: 52 u/L
ALBUMIN [4]: 4.27 G/DL
ALKALINE PHOSPHATASE [4]: 326 u/L
ASPARTATE AMINOTRANSFERASE [4]: 65.67 u/L
BLOOD UREA NITROGEN [4]: 16 mg/dL
CARBON DIOXIDE [4]: 24.67 mmol/L
CHLORIDE [4]: 108.33 MEQ/L
CHOLESTEROL [4]: 74.67 mg/dL
CREATINE PHOSPHOKINASE [4]: 187 u/L
CREATININE [4]: 0.16 mg/dL
GLUCOSE [4]: 176.33 mg/dL
LACTATE DEHYDROGENASE [4]: 75.67 u/L
LIPASE [4]: 10.33 u/L
PHOSPHORUS [4]: 10.53 mg/dL
POTASSIUM [4]: 4.45 MEQ/L
SODIUM [4]: 149.7 MEQ/L
TOTAL BILIRUBIN [4]: 0.1 mg/dL
TOTAL PROTEIN [4]: 6.33 G/DL
URIC ACID [4]: 0.6 mg/dL
